Measured values: ChEMBL document CHEMBL6120994, “Unravelling the potential of natural chelating agents in the control of Staphylococcus aureus and Pseudomonas aeruginosa biofilms” (Eur J Med Chem, 2025)
Active and inactive are the calls of the source. The calls are words filed in the database; no cut-off is given here.

Legend:
[1] = system: Pseudomonas aeruginosa; test: Antibacterial activity against Pseudomonas aeruginosa ATCC 10145 assessed as inhibition of bacterial growth by measuring inhibition zone diameter at 100 ug/ml incubated for 24 hrs in presence of ciprofloxacin by disc diffusion method (reference value: 24.25 +/-0.5 mm); type: functional; conditions: read-out: DIZ
[2] = system: Pseudomonas aeruginosa; test: Antibacterial activity against Pseudomonas aeruginosa ATCC 10145 assessed as inhibition of bacterial growth by measuring inhibition zone diameter at 100 ug/ml incubated for 24 hrs in presence of tobramycin by disc diffusion method (reference value: 13.25 +/-0.5 mm); type: functional; conditions: read-out: DIZ
[3] = system: Staphylococcus aureus; test: Antibacterial activity against Staphylococcus aureus CECT 976 assessed as inhibition of bacterial growth by measuring inhibition zone diameter at 1000 ug/ml incubated for 24 hrs in presence of fusidic acid by disc diffusion method (reference value: 27.75 +/- 0.5 mm); type: functional; conditions: read-out: DIZ
[4] = system: Pseudomonas aeruginosa; test: Antibiotic adjuvant activity against Pseudomonas aeruginosa ATCC 10145 assessed as potentiation of ciprofloxacin-induced antibiofilm activity by measuring reduction in biomass production at 500 ug/ml measured after 24 hrs in presence of 1/16XMIC ciprofloxacin by cystal violet staining method (reference value: 36%); type: functional
[5] = system: Staphylococcus aureus; test: Antibiofilm activity against Staphylococcus aureus CECT 976 assessed as reduction in biofilm cells culturability at 500 to 1000 ug/ml measured after 24 hrs by visual counting method; type: functional, organism-based; conditions: dose 500-1000 µg/ml
[6] = system: Pseudomonas aeruginosa; test: Antibiofilm activity against preestablished 24 hr-old Pseudomonas aeruginosa ATCC 10145 assessed as biomass removal at 1000 to 10000 ug/ml measured after 24 hrs by crystal violet staining method; type: functional; conditions: dose 1000-10000 µg/ml, at 1000 to 10000 µg/mL
[7] = system: Pseudomonas aeruginosa; test: Antibiofilm activity against preestablished 24 hr-old Pseudomonas aeruginosa ATCC 10145 assessed as reduction in metabolic activity of biofilm cells at 10XMTC by resazurin staining based fluorescence analysis; type: functional
[8] = system: Staphylococcus aureus; test: Antibiofilm activity against preestablished 24 hr-old Staphylococcus aureus CECT 976 assessed as reduction in metabolic activity of biofilm cells at 10XMTC by resazurin staining based fluorescence analysis; type: functional
[9] = system: Pseudomonas aeruginosa; test: Antibiofilm activity against preestablished 24 hr-old Pseudomonas aeruginosa ATCC 10145 assessed as reduction in metabolic activity of biofilm cells at MTC by resazurin staining based fluorescence analysis; type: functional, organism-based
[10] = system: Staphylococcus aureus; test: Antibiotic adjuvant activity against preestablished 24 hr-old Staphylococcus aureus CECT 976 assessed as potentiation of tobramycin-induced antibiofilm activity by measuring reduction of metabolic activity of biofilm cells at 10000 ug/ml in presence of 1/4XMIC tobramycin by resazurin staining based fluorescence analysis (reference value: 37%); type: functional
[11] = system: Pseudomonas aeruginosa; test: Antibiotic adjuvant activity against preestablished 24-hr old Pseudomonas aeruginosa ATCC 10145 assessed as potentiation of ciprofloxacin-induced antibiofilm activity by measuring reduction of biomass at 1000 ug/ml measured after 24 hrs in presence of 1/8XMIC ciprofloxacin by crystal violet staining method; type: functional, organism-based; conditions: dose 1000.0 µg/ml
[12] = system: Pseudomonas aeruginosa; test: Antibiotic adjuvant activity against preestablished 24-hr old Pseudomonas aeruginosa ATCC 10145 assessed as potentiation of ciprofloxacin-induced antibiofilm activity by measuring reduction of CFU biofilm cells at 1000 ug/ml measured after 24 hrs in presence of 1/8XMIC ciprofloxacin by visual counting method; type: functional, organism-based; conditions: dose 1000.0 µg/ml
[13] = system: Cell membrane; test: Disruption of membrane integrity in Staphylococcus aureus CECT 976 biofilm at 500 ug/ml measured after 24 hrs in presence of 1/2XMIC tobramycin by SYTO9/PI dye based epifluorescence microscopy; type: subcellular; conditions: dose 500.0 µg/ml
[14] = system: Staphylococcus aureus; test: Inhibition of virulence production in Staphylococcus aureus CECT 976 biofilms assessed as diameter of gelatinases halo at 1/2XMTC measured after 48 hrs in presence of 1/8XMIC tobramycin (reference value: 11.3 to 12 mm); type: functional
[15] = system: Staphylococcus aureus; test: Inhibition of virulence production in Staphylococcus aureus CECT 976 biofilms assessed as diameter of lipases halo at 1/2XMTC measured after 48 hrs (reference value: 11.5 to 13.3 mm); type: functional
[16] = system: Staphylococcus aureus; test: Inhibition of virulence production in Staphylococcus aureus CECT 976 biofilms assessed as diameter of protease halo at 1/2XMTC measured after 72 hrs (reference value: 11.8 to 13.3 mm); type: functional
[17] = system: Staphylococcus aureus; test: Inhibition of virulence production in Staphylococcus aureus CECT 976 biofilms assessed as diameter of protease halo at 1/2XMTC measured after 72 hrs in presence of 1/8XMIC tobramycin (reference value: 12.5 to 13.3 mm); type: functional
[18] = system: Staphylococcus aureus; test: Inhibition of virulence production in Staphylococcus aureus CECT 976 biofilms assessed as diameter of protease halo at 1/2XMTC measured after 72 hrs in presence of 1/4XMIC tobramycin (reference value: 11.5 to 12.3 mm); type: functional
[19] = system: Staphylococcus aureus; test: Inhibition of virulence production in Staphylococcus aureus CECT 976 biofilms assessed as diameter of protease halo at 1/2XMTC measured after 72 hrs in presence of 1/2XMIC tobramycin (reference value: 12.5 to 13.3 mm); type: functional
[20] = system: Staphylococcus aureus; test: Inhibition of virulence production in Staphylococcus aureus CECT 976 biofilms assessed as diameter of siderophores halo at 1/2XMTC measured after 48 hrs in presence of 1/2XMIC tobramycin (reference value: 10.5 +/-0.6 mm); type: functional
[21] = system: Staphylococcus aureus; test: Inhibition of virulence production in pre-established 24 hr-old Staphylococcus aureus CECT 976 biofilms assessed as diameter of gelatinases halo at 10XMTC measured after 48 hrs in presence of 1XMIC tobramycin (reference value: 9.5 to 10 mm); type: functional
[22] = system: Staphylococcus aureus; test: Inhibition of virulence production in pre-established 24 hr-old Staphylococcus aureus CECT 976 biofilms assessed as diameter of protease halo at 10XMTC measured after 72 hrs in presence of 1/4XMIC tobramycin (reference value: 12.5 to 12.8 mm); type: functional
[23] = system: Staphylococcus aureus; test: Inhibition of virulence production in pre-established 24 hr-old Staphylococcus aureus CECT 976 biofilms assessed as diameter of protease halo at 10XMTC measured after 72 hrs in presence of 1XMIC tobramycin (reference value: 11.5 to 12 mm); type: functional
[24] = system: Staphylococcus aureus; test: Inhibition of virulence production in pre-established 24 hr-old Staphylococcus aureus CECT 976 biofilms assessed as diameter of siderophores halo at 10XMTC measured after 48 hrs in presence of 1/2XMIC tobramycin (reference value: 11.8 +/-0.5 mm); type: functional
[25] = Cytotoxicity against human HepG2 cells assessed as metabolic activity by measuring resazurin reduction at 93.5 to 1000 ug/ml measured after 24 hrs by resazurin reduction method; type: toxicity, cell-based; conditions: at 93.5 to 1000 µg/mL, dose 93.5-1000 µg/ml, read-out: Activity
[26] = system: HepG2; test: Cytotoxicity against human HepG2 cells assessed as cell mass by measuring SRB binding at 93.5 to 1000 ug/ml measured after 24 hrs by SRB assay; type: toxicity, cell-based; conditions: hepg2, 24 h, at 93.5 to 1000 µg/mL, dose 93.5-1000 µg/ml

## O=c1cc(CO)occ1O [KOJIC ACID]
[1]
  zone of inhibition at 100 µg/mL: 30.2 mm
[2]
  zone of inhibition at 100 µg/mL: 17.2 mm
[3]
  zone of inhibition at 1000 µg/mL: 26.8 mm
[4]
  inhibition at 500 µg/mL: 60%
[5]
  Activity: inactive
[6]
  inhibition (INH): 15%
[7]
  inhibition (INH): 70%
[8]
  inhibition (INH): 80%
[9]
  Activity: inactive
[10]
  inhibition at 10000 µg/mL: 80%
[11]
  Activity: inactive
[12]
  Activity: inactive
[13]
  Activity: inactive
[14]
  Activity: 0 mm
[15]
  Activity: 2.8 mm
[16]
  Activity: 0 mm
[17]
  Activity: 0 mm
[18]
  Activity: 0 mm
[19]
  Activity: 0 mm
[20]
  Activity: 9.75 mm
[21]
  Activity: 0 mm
[22]
  Activity: 0 mm
[23]
  Activity: 0 mm
[24]
  Activity: 10 mm
[25]
  viability at 24 h: > 80%
[26]
  Activity: > 90%

## Cc1occc(=O)c1O [MALTOL]
[1]
  zone of inhibition at 100 µg/mL: 27.2 mm
[2]
  zone of inhibition at 100 µg/mL: 16.2 mm
[3]
  zone of inhibition at 1000 µg/mL: 28.2 mm
[4]
  inhibition at 500 µg/mL: 60%
[5]
  Activity: inactive
[6]
  inhibition (INH): 15%
[7]
  inhibition (INH): 70%
[8]
  inhibition (INH): 80%
[9]
  Activity: inactive
[10]
  inhibition at 10000 µg/mL: 80%
[11]
  Activity: inactive
[12]
  Activity: inactive
[13]
  Activity: inactive
[14]
  Activity: 0 mm
[15]
  Activity: 3.5 mm
[16]
  Activity: 0 mm
[17]
  Activity: 0 mm
[18]
  Activity: 0 mm
[19]
  Activity: 0 mm
[20]
  Activity: 9.5 mm
[21]
  Activity: 0 mm
[22]
  Activity: 0 mm
[23]
  Activity: 0 mm
[24]
  Activity: 10 mm
[25]
  viability at 24 h: > 80%
[26]
  Activity: > 90%
